In ChEMBL document CHEMBL3784914, “Bioactive lignan constituents from the twigs of Sambucus williamsii” (Bioorg Med Chem Lett, 2016):
pIC50: −log10 of the molar value.

Key:
SK-MEL-2 = assay: Cytotoxicity against human SK-MEL-2 cells by SRB assay; type: functional, cell-based
[1] = Cytotoxicity against human SKOV3 cells by SRB assay; type: functional, cell-based; conditions: SK-OV-3
A549 = assay: Cytotoxicity against human A549 cells by SRB assay; type: functional, cell-based
C6 = assay: Neuroprotective activity in rat C6 cells assessed as NGF secretion at 20 uM after 24 hrs by ELISA; type: functional
[2] = Cytotoxicity in rat C6 cells assessed as cell viability at 20 uM after 24 hrs by MTT assay; type: cell-based; conditions: read-out: Activity
[3] = Anti-neuroinflammatory activity in LPS-activated mouse BV2 cells assessed as inhibition of NO production after 24 hrs by Griess assay; type: functional, cell-based; conditions: BV-2, 24 h
XF498 = assay: Cytotoxicity against human XF498 cells by SRB assay; type: functional, cell-based
[4] = Cytotoxicity against mouse BV2 cells assessed as cell viability at 20 uM by MTT assay; type: cell-based, BV-2; conditions: read-out: Activity

SMILES | pIC50 (SK-MEL-2) | pIC50 [1] | pIC50 (A549) | Activity (C6) [%] | viability at 24 h, 20 µM [2] [%] | pIC50 [3] | pIC50 (XF498) | viability at 20 µM [4] [%]
COc1cc([C@H]2OC[C@H]3[C@@H]2CO[C@@H]3c2cc(OC)c(O)c(OC)c2)ccc1O | < 4.52 | < 4.52 | < 4.52 | 96.39 | 103 | 4.34 | < 4.52 | 127
COc1cc(C[C@H]2CO[C@H](c3ccc(O)c(OC)c3)[C@@]2(O)CO)ccc1O | < 4.52 | < 4.52 | < 4.52 | 107.88 | 103 | 3.67 | < 4.52 | 151
COc1cc(/C=C/C(=O)OCCCc2cc(OC)c3c(c2)[C@@H](CO)[C@H](c2cc(OC)c(O[C@@H](CO)[C@H](O)c4ccc(O)c(OC)c4)c(OC)c2)O3)ccc1O | 4.96 | 4.80 | 4.88 | 183.95 | 92.3 | 5.17 | 4.74 | 157
COc1cc(C[C@@H]2CO[C@H](c3ccc(O)c(OC)c3)[C@]2(O)CO)ccc1O | < 4.52 | < 4.52 | < 4.52 | 107.97 | 106 | < 3.30 | < 4.52 | 128
COc1cc(/C=C\C(=O)OCCCc2cc(OC)c3c(c2)[C@@H](CO)[C@H](c2cc(OC)c(O[C@H](CO)[C@H](O)c4ccc(O)c(OC)c4)c(OC)c2)O3)ccc1O | 4.94 | 4.75 | 4.80 | 155.96 | 97 | 4.83 | 4.71 | 138
COc1cc(/C=C/C(=O)OCCCc2cc(OC)c3c(c2)[C@@H](CO)[C@H](c2cc(OC)c(O[C@H](CO)[C@H](O)c4ccc(O)c(OC)c4)c(OC)c2)O3)ccc1O | 4.85 | 4.76 | 4.79 | 153.99 | 82.7 | 5.15 | 4.74 | 146
COc1cc(C(O)[C@H]2CO[C@H](c3ccc(O)c(OC)c3)[C@H]2CO)ccc1O (stereo not given in full) | < 4.52 | < 4.52 | < 4.52 | 101.55 | 104 | 3.89 | < 4.52 | 114
COc1cc([C@@H]2OC[C@@H]3[C@H]2CO[C@H]3c2ccc(O)c(OC)c2)ccc1O [(+)-PINORESINOL] | < 4.52 | < 4.52 | < 4.52 | 106.93 | 105 | 4.47 | < 4.52 | 148
COc1cc([C@@H]2Oc3c(OC)cc(CCCO)cc3[C@H]2CO)ccc1O [DIHYDRODEHYDRODICONIFERYL ALCOHOL] | < 4.52 | < 4.52 | < 4.52 | 97.14 | 105 | 4.40 | < 4.52 | 129
COc1cc([C@@H]2c3cc4c(cc3[C@@H](O[C@@H]3O[C@@H]5CO[C@@H](C)O[C@H]5[C@H](O)[C@H]3O)[C@H]3COC(=O)[C@H]23)OCO4)cc(OC)c1O [ETOPOSIDE] |  | 6.08 |  |  |  |  |  | 
COc1cc(C[C@H]2CO[C@H](c3ccc(O)c(OC)c3)[C@H]2CO)ccc1O [LARICIRESINOL] | < 4.52 | < 4.52 | < 4.52 | 77.31 | 101 | 4.14 | < 4.52 | 147
CCCCC/C=C/C(=O)CCc1ccc(O)c(OC)c1 [SHOGAOL] |  |  |  | 151.75 | 105 |  |  | 
CNC(=N)NCCC[C@H](N)C(=O)O [TILARGININE] |  |  |  |  |  | 4.68 |  | 102
